Format in all cases: cell-based
In assay [1] the test system is PD1-ss+10aa/Gaussia Luciferase. Put plainly: Dox induced PD1-ss-Gluc assay. An outline of the steps: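 Stable Flp-In 293 T-REx line expressing doxycycline-inducible Gaussia luciferase fused to the PD1 signal sequence plus 10 amino acids. Cells plated the day before, then exposed to compound dilutions in DMSO/media containing doxycycline at 37 °C, 5% CO2.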
The subject of assay [2] is TNFα-FL/Gaussia Luciferase. In words: Dox induced TNFα-FL-Gluc assay. An outline of the steps: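 Stable Flp-In 293 T-REx line expressing full-length TNFα (aa 1-233) fused at its C-terminus to Gaussia luciferase under doxycycline-inducible control. Cells plated the day before, then given compound dilutions in DMSO/media containing doxycycline and incubated at 37 °C, 5% CO2.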

Assay [3] deals with NCI-H929 multiple myeloma cell line. Put plainly: H929 assay (cell viability, Celltiter-Glo). The following applies: Homo sapiens, read-out: H929 EC50. In outline: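 Cells plated in RPMI 1640 with 10% FBS and 2 mM glutamine, treated with compound dilutions in DMSO/media. Incubation 48 h at 37° C, 5% CO2. Viability from luciferase luminescence signal.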
(In general: ATP-based viability assays read luminescence as a measure of living cells.)

In assay [4] the test system is Prl-ss+10aa/Gaussia Luciferase. In words: Prl-ss-Gluc assay (constitutively active or 24 hr Dox inducible). An outline of the steps: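 Stable Flp-In 293 T-REx lines express Prl signal sequence+10aa fused to Gaussia luciferase, either constitutively (pcDNA5/FRT) or under the T-REx promoter (pcDNA5/FRT/TO). Cells plated the day before; compounds in DMSO/media (with doxycycline for the inducible line, 24 h) incubated at 37 °C, 5% CO2.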

Assay [5] has as its system VCAMss+10aa/Gaussia Luciferase. In words: VCAM-ss-Gluc assay (constitutively active or Dox induced). The following applies: Flp-In 293 T-REx cells, 24 hours. In outline: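 Stable cell lines secreting a VCAM signal sequence+10aa/Gaussia luciferase fusion, expressed either constitutively or under T-REx doxycycline control. Cells plated the day before; compound dilutions in DMSO/media (with doxycycline for the induced line) added and incubated at 37° C, 5% CO2.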

Another assay concerns HER3ss-Gluc. Put plainly: HER3ss assay. An outline of the steps:
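HEK-293T T-REx cells were transiently transfected with HER3 signal sequence (plus four mature-domain residues) fused upstream of mature Gaussia luciferase. Cells were induced with doxycycline (1 μg/ml) and exposed to increasing compound concentrations for 24 h, then secreted luciferase in the conditioned medium was read by luminescence.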

Assay [6] deals with BT474 breast tumor cell line. In words: BT474 assay (Alamar blue). The following applies: Homo sapiens, BT-474, 72 h. The procedure:
BT474 is a human breast tumor cell line. JJN3 is a human plasma cell leukemia cell line. […] Cells were seeded at 100 000 cells/mL. Aliquots of 5000 cells (50 μL) were added to each well in black, clear bottom 96-well plates. Compounds or control (50 uL of 1% DMSO in cell culture medium) were added to the cells to the indicated final concentrations and cells were incubated for 72 h (unless otherwise specified). After incubation was complete, Alamar blue (10 uL of a 1 mg/mL solution) was added to each well and plates were incubated for 5 h. Fluorescence was then measured (excitation 545 nm, emission 590 nm) and is reported as […] normalized to DMSO control.
On the technique in general: Alamar Blue is a resazurin reagent that responds to reducing activity.

Assay [7] has as its system JJN3 plasma cell leukemia cell line. Put plainly: JJN-3 assay (Alamar blue). Particulars: Homo sapiens, 72 h. In outline:
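For both lines, 5000 cells/well were exposed to compound or a 1% DMSO-medium control for 72 h unless otherwise specified. Signal was normalized to the DMSO control.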

Assay [8] deals with U266B1 multiple myeloma cell line. Put plainly: U266 assay (cell viability, Celltiter-Glo). Particulars: Homo sapiens, U-266; 48 hours, cell viability. The procedure:
Cells were plated in 384-well tissue culture plates and treated with compound dilutions in DMSO/media. Plates were incubated at 37° C., 5% CO2 for 48 hours. After 48 hours, Celltiter-Glo@ (Promega) was added to each well and luciferase signal was quantified using Tecan Infinite M1000 Pro for cell viability determination.

Where [9] appears, read: Flp-In 293 T-REx cells, doxycycline, 24 hours; read-out: PD1ss Gluc IC50.
[10] abbreviates: Flp-In 293 T-REx cells, doxycycline, 24 hours; read-out: TNFa FL Gluc IC50.
Setting [11] is: NCI-H929, 48 hours, cell viability.
[12] abbreviates: Flp-In 293 T-REx cells, 24 hours; read-out: Prl IC50.
The mark [13] stands for this setting: HEK-293T T-rex cells, transient transfection, doxycycline, 24 h; read-out: HER3 ss IC50.

pEC50, pIC50: −log10 of the molar value. Where two headings read alike, the source gives them in different places. Square brackets hold non-standard residues; d marks the D form. Peptide text beside a SMILES is read from it. NMeTrp(1-(4-Br-benzyl)) = CN[C@@H](Cc1cn(Cc2ccc(Br)cc2)c2ccccc12)C(=O)O; Butanoyl(2R-oxy,4-CN) = N#CCC[C@@H](O)C(=O)O; Abu(4,4,4-F3) = N[C@@H](CC(F)(F)F)C(=O)O; tBuAla = CC(C)(C)C[C@H](N)C(=O)O; NMeL = CN[C@@H](CC(C)C)C(=O)O; NMeA = CN[C@@H](C)C(=O)O

As for `CC(C)C[C@@H]1NC(=O)[C@H](Cc2cn(Cc3ccc(F)cc3)c3ccccc23)N(C)C(=O)[C@H](CC(C)C)NC(=O)[C@H](CC(C)C)N(C)C(=O)[C@H](CC(C)C)NC(=O)[C@@H](CCC#N)OC(=O)[C@H](C)N(C)C1=O` [C-12] (HELM PEPTIDE1{L.[meA].[N#CCC[C@@H](O[*:1])C(=O)[*:2]].L.[meL].L.[CN([C@@H](Cc1cn(Cc2ccc(F)cc2)c2ccccc12)C(=O)[*:2])[*:1]]}$PEPTIDE1,PEPTIDE1,1:R1-7:R2$$$V2.0), the pIC50 in assay [1] (setting [9]) is 8.10; in [2] (setting [10]), 7.36; in assay [4] (setting [12]), 5.95; in [5] it was 6.64; in the assay with HER3ss-Gluc (setting [13]), 7.51. Besides, the pEC50 in assay [3] (setting [11]) is 6.13; in assay [6], 6.20; in assay [7], 7.15; in assay [8] it was 5.16.
`COc1cccc(Cn2cc(C[C@H]3C(=O)N[C@@H](CC(C)C)C(=O)N(C)[C@@H](C)C(=O)O[C@H](CCC#N)C(=O)N[C@@H](CC(C)C)C(=O)N(C)[C@@H](CC(C)C)C(=O)N[C@@H](CC(C)C)C(=O)N3C)c3ccccc32)c1` [C-13] (HELM PEPTIDE1{L.[meA].[N#CCC[C@@H](O[*:1])C(=O)[*:2]].L.[meL].L.[COc1cccc(Cn2cc(C[C@@H](C(=O)[*:2])N(C)[*:1])c3ccccc32)c1]}$PEPTIDE1,PEPTIDE1,1:R1-7:R2$$$V2.0): the pIC50 in assay [1] (setting [9]) is 7.52; in [2] (setting [10]), 6.93; in [4] (setting [12]), 5.72; in assay [5], 5.99; with HER3ss-Gluc (setting [13]), 7.16. Further, the pEC50 was 6.08 in assay [3] (setting [11]), 5.87 in assay [6], 6.72 in assay [7] and 4.77 in assay [8].
On to `CC(C)C[C@@H]1NC(=O)[C@H](Cc2cn(Cc3ccc(Br)cc3)c3ccccc23)N(C)C(=O)[C@H](CC(C)C)NC(=O)[C@H](CC(C)C)N(C)C(=O)[C@H](CC(C)C)NC(=O)[C@@H](CCC#N)OC(=O)[C@H](C)N(C)C1=O` [C-14] (HELM PEPTIDE1{L.[meA].[N#CCC[C@@H](O[*:1])C(=O)[*:2]].L.[meL].L.[CN([C@@H](Cc1cn(Cc2ccc(Br)cc2)c2ccccc12)C(=O)[*:2])[*:1]]}$PEPTIDE1,PEPTIDE1,1:R1-7:R2$$$V2.0), for which the negative-log IC50 (pIC50) was 7.74 in assay [1] (setting [9]); 6.97 in assay [2] (setting [10]); 6.44 in [4] (setting [12]); 6.31 in [5]; 7.29 with HER3ss-Gluc (setting [13]). Also, the negative logarithm of the EC50 (pEC50) is 5.89 in assay [3] (setting [11]), 6.07 in assay [6], 6.63 in assay [7] and 5.10 in [8].
As for `Cc1cc(Cn2cc(C[C@H]3C(=O)N[C@@H](CC(C)C)C(=O)N(C)[C@@H](C)C(=O)O[C@H](CCC#N)C(=O)N[C@@H](CC(C)C)C(=O)N(C)[C@@H](CC(C)C)C(=O)N[C@@H](CC(C)C)C(=O)N3C)c3ccccc32)no1` [C-15] (HELM PEPTIDE1{L.[meA].[N#CCC[C@@H](O[*:1])C(=O)[*:2]].L.[meL].L.[Cc1cc(Cn2cc(C[C@@H](C(=O)[*:2])N(C)[*:1])c3ccccc32)no1]}$PEPTIDE1,PEPTIDE1,1:R1-7:R2$$$V2.0), the pIC50 in [1] (setting [9]) was 6.32; in assay [2] (setting [10]), 5.33; in assay [4] (setting [12]), 5.19; in assay [5], 5.40; in the assay on HER3ss-Gluc (setting [13]), 6.55. Also, the negative logarithm of the EC50 (pEC50) in assay [3] (setting [11]) is 5.23; in assay [6], 5.58; in assay [7], 5.31; in assay [8], 4.69.
In the case of `CC(C)C[C@@H]1NC(=O)[C@H](Cc2cn(Cc3ccc(Br)cc3)c3ccccc23)N(C)C(=O)[C@H](CC(C)C)NC(=O)[C@H](CC(C)C)N(C)C(=O)[C@H](CC(C)(C)C)NC(=O)[C@@H](CCC#N)OC(=O)[C@H](C)N(C)C1=O` [C-39] (cyclo(L[NMeA][Butanoyl(2R-oxy,4-CN)][tBuAla][NMeL]L[NMeTrp(1-(4-Br-benzyl))])), the pIC50 in assay [1] (setting [9]) is 7.17; in [2] (setting [10]), 6.58; in [4] (setting [12]), 5.48; in assay [5], 6.52; in the assay on HER3ss-Gluc (setting [13]) it was 6.48. Further, the negative-log EC50 (pEC50) in assay [3] (setting [11]) was 5.51; in [6] it was 5.45; in assay [7], 6.21.
`CCCC[C@@H]1NC(=O)[C@@H](CCC#N)OC(=O)[C@H](C)N(C)C(=O)[C@H](CC(C)C)NC(=O)[C@H](Cc2cn(Cc3ccc(Br)cc3)c3ccccc23)N(C)C(=O)[C@H](CC(C)C)NC(=O)[C@H](CC(C)C)N(C)C1=O` [C-40] (HELM PEPTIDE1{L.[meA].[N#CCC[C@@H](O[*:1])C(=O)[*:2]].[Nle].[meL].L.[CN([C@@H](Cc1cn(Cc2ccc(Br)cc2)c2ccccc12)C(=O)[*:2])[*:1]]}$PEPTIDE1,PEPTIDE1,1:R1-7:R2$$$V2.0): the pIC50 in [1] (setting [9]) was 7.32; in assay [2] (setting [10]), 6.74; in [4] (setting [12]) it was 5.49; in [5], 6.91; with HER3ss-Gluc (setting [13]), 6.10. Further, the negative-log EC50 (pEC50) is 5.64 in assay [3] (setting [11]), 5.67 in assay [6] and 6.49 in assay [7].
As to `CC(C)C[C@@H]1NC(=O)[C@H](Cc2cn(Cc3ccc(Br)cc3)c3ccccc23)N(C)C(=O)[C@H](CC(C)C)NC(=O)[C@H](CC(C)C)N(C)C(=O)[C@H](CC(F)(F)F)NC(=O)[C@@H](CCC#N)OC(=O)[C@H](C)N(C)C1=O` [C-41] (cyclo(L[NMeA][Butanoyl(2R-oxy,4-CN)][Abu(4,4,4-F3)][NMeL]L[NMeTrp(1-(4-Br-benzyl))])), the negative-log IC50 (pIC50) in [1] (read-out: PD1ss Gluc IC50; Flp-In 293 T-REx cells, doxycycline, 24 hours) was 7.72; in [2] (read-out: TNFa FL Gluc IC50; Flp-In 293 T-REx cells, doxycycline, 24 hours), 7.11; in [4] (read-out: Prl IC50; Flp-In 293 T-REx cells, 24 hours), 5.99; in [5] it was 7.49; in the assay on HER3ss-Gluc (read-out: HER3 ss IC50; HEK-293T T-rex cells, transient transfection, doxycycline, 24 h), 7.64. Moreover, the negative-log EC50 (pEC50) in assay [3] (NCI-H929, 48 h) was 5.89; in assay [6], 6.08; in assay [7], 7.14.
With `CC(C)C[C@@H]1NC(=O)[C@H](Cc2cn(Cc3ccc(C(F)(F)F)cc3)c3ccccc23)N(C)C(=O)[C@H](CC(C)C)NC(=O)[C@H](CC(C)C)N(C)C(=O)[C@H](CC(C)C)NC(=O)[C@@H](CCC#N)OC(=O)[C@H](C)N(C)C1=O` [C-42] (HELM PEPTIDE1{L.[meA].[N#CCC[C@@H](O[*:1])C(=O)[*:2]].L.[meL].L.[CN([C@@H](Cc1cn(Cc2ccc(C(F)(F)F)cc2)c2ccccc12)C(=O)[*:2])[*:1]]}$PEPTIDE1,PEPTIDE1,1:R1-7:R2$$$V2.0), the pIC50 in assay [1] (setting [9]) was 7.43; in assay [2] (setting [10]), 6.45; in assay [4] (setting [12]), 5.26; in assay [5], 6.78. In addition, the pEC50 was 5.40 in assay [3] (setting [11]), 5.48 in assay [6], 6.05 in assay [7] and 4.70 in assay [8].

The term pIC50 denotes −log10 of the IC50, conventionally taken in molar units. By pEC50 is commonly meant the negative decadic logarithm of the EC50, by convention in mol/L.

For the origin of these results see patent US11339193B2, “CDP protein secretion inhibitors” (KEZAR LIFE SCIENCES, priority 2018, dated 2022).
